Assay results taken from US20220089592A1, “IMIDAZO[1,2-A]PYRIDINYL DERIVATIVES AS IRAK4 INHIBITORS” (priority 2019, published 2022).
Where a name gives a salt, the structure may show the parent alone.

Biological target: T1, IRAK4 (Homo sapiens, UniProt Q9NWZ3)
T1 sequence (Q9NWZ3 1-460): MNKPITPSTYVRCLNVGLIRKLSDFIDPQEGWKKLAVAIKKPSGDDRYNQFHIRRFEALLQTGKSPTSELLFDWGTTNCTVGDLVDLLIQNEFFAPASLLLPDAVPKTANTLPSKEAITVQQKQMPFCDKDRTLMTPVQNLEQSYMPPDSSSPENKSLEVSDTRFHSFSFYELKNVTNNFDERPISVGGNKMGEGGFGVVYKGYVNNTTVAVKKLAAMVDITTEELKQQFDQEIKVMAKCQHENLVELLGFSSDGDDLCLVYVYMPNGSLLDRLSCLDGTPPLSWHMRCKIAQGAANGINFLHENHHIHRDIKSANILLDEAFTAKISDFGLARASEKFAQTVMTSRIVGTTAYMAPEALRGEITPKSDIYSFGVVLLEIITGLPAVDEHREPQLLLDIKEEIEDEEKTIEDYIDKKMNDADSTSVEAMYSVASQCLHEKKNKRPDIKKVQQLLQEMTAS
Assay: 2-hour 1 mM ATP IRAK4 Biochemical assay (as above, but with 100 pM IRAK4 and 1 mM ATP)
Settings: IRAK4 MSD BIOCHEMICAL (1 mM ATP) IC50 (μM), 100 pM IRAK4, 2 hours
How it was run: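 MSD electrochemiluminescence read-out: biotinylated peptide product bound to streptavidin plates, probed with anti-P-Thr rabbit antibody and Sulfo-Tag goat anti-rabbit. Kinase reaction used 1 mM ATP and 100 pM IRAK4 over 2 hours before EDTA quench.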

IC50 [µM] | SMILES
0.001 | CCOc1cc2nc(C3C4COCC43)cn2cc1NC(=O)c1csc(C(F)(F)F)n1 (stereo not drawn) [Example 377, N-(2-(3-oxabicyclo[3.1.0]hexan-6-yl)-7-ethoxyimidazo[1,2-a]pyridin-6-yl)-2-(trifluoromethyl)thiazole-4-carboxamide 2,2,2-trifluoroacetate]
0.002 | CC(C)Oc1nc2nc(C3C4COCC43)cn2cc1NC(=O)c1coc(C(C)C)n1 (stereo not drawn) [Example 504, N-(2-(3-oxabicyclo[3.1.0]hexan-6-yl)-7-isopropoxyimidazo[1,2-a]pyrimidin-6-yl)-2-isopropyloxazole-4-carboxamide]
0.006 | CC(C)Oc1nc2nc(C34COC(C)(C3)C4)cn2cc1NC(=O)c1ccn(C)n1 [Example 497, N-(7-isopropoxy-2-(1-methyl-2-oxabicyclo[2.1.1]hexan-4-yl)imidazo[1,2-a]pyrimidin-6-yl)-1-methyl-1H-pyrazole-3-carboxamide]
0.004 | CCOc1nc(NC(=O)c2cccc(C(F)F)n2)cn2cc(C34COC(C)(C3)C4)nc12 [Example 201, 6-(difluoromethyl)-N-(8-ethoxy-2-(1-methyl-2-oxabicyclo[2.1.1]hexan-4-yl)imidazo[1,2-a]pyrazin-6-yl)picolinamide]
0.002 | CC(C)Oc1nc2nc(C3C4COCC43)cn2cc1NC(=O)c1ccn(CC(F)F)n1 (stereo not drawn) [Example 503, N-(2-(3-oxabicyclo[3.1.0]hexan-6-yl)-7-isopropoxyimidazo[1,2-a]pyrimidin-6-yl)-1-(2,2-difluoroethyl)-1H-pyrazole-3-carboxamide]
0.005 | COc1nc(NC(=O)c2cccc(C(F)F)n2)cn2cc(C3C4CCOCC43)nc12 (stereo not drawn) [Example 556, N-(2-(3-oxabicyclo[4.1.0]heptan-7-yl)-8-methoxyimidazo[1,2-a]pyrazin-6-yl)-6-(difluoromethyl)picolinamide 2,2,2-trifluoroacetate]
0.014 | COCCn1ccc(C(=O)Nc2cn3cc(C4CCOCC4)nc3cc2OC(C)C)n1 [Example 383, N-(7-isopropoxy-2-(tetrahydro-2H-pyran-4-yl)imidazo[1,2-a]pyridin-6-yl)-1-(2-methoxyethyl)-1H-pyrazole-3-carboxamide 2,2,2-trifluoroacetate]
0.007 | COc1nc(NC(=O)c2cccc(C(F)(F)F)n2)cn2cc(C3CCCOC3)nc12 (single isomer, unassigned) [Example 299, N-(8-methoxy-2-(tetrahydro-2H-pyran-3-yl)imidazo[1,2-a]pyrazin-6-yl)-6-(trifluoromethyl)picolinamide]
0.007 | COc1nc(NC(=O)c2cccc(C(F)F)n2)cn2cc(C34CCOC(C)(C3)C4)nc12 [Example 555, 6-(difluoromethyl)-N-(8-methoxy-2-(1-methyl-2-oxabicyclo[3.1.1]heptan-5-yl)imidazo[1,2-a]pyrazin-6-yl)picolinamide]
0.044 | COc1nc(NC(=O)c2cccc(C(F)F)n2)cn2cc(C3CC34CCOCC4)nc12 (stereo not drawn) [Example 558, 6-(difluoromethyl)-N-(8-methoxy-2-(6-oxaspiro[2.5]octan-1-yl)imidazo[1,2-a]pyrazin-6-yl)picolinamide 2,2,2-trifluoroacetate]
0.071 | COc1ncccc1C(=O)Nc1cc(OC(F)F)c2nc(C34COC(C)(C3)C4)cn2c1 [Example 420, N-(8-(difluoromethoxy)-2-(1-methyl-2-oxabicyclo[2.1.1]hexan-4-yl)imidazo[1,2-a]pyridin-6-yl)-2-methoxynicotinamide 2,2,2-trifluoroacetate]
0.022 | COc1nc(NC(=O)c2coc(C)n2)cn2cc(C34CCC(C)(C3)OC4)nc12 (stereo not drawn) [Example 471, N-(8-methoxy-2-(1-methyl-2-oxabicyclo[2.2.1]heptan-4-yl)imidazo[1,2-a]pyrazin-6-yl)-2-methyloxazole-4-carboxamide 2,2,2-trifluoroacetate]
0.118 | COc1nc(NC(=O)c2ccn(C)n2)cn2cc(C34COC(C)(C3)C4)nc12 [Example 441, N-(8-methoxy-2-(1-methyl-2-oxabicyclo[2.1.1]hexan-4-yl)imidazo[1,2-a]pyrazin-6-yl)-1-methyl-1H-pyrazole-3-carboxamide]
0.008 | O=C(Nc1cn2cc(C3CCCOC3)nc2c(OC(F)F)n1)c1cccc(C(F)F)n1 (single isomer, unassigned) [Example 302, N-(8-(difluoromethoxy)-2-(tetrahydro-2H-pyran-3-yl)imidazo[1,2-a]pyrazin-6-yl)-6-(difluoromethyl)picolinamide]
0.004 | CC(C)Oc1cc2nc(C3CC3)cn2cc1NC(=O)c1ccn(C(F)F)n1 [Example 528, N-(2-cyclopropyl-7-isopropoxyimidazo[1,2-a]pyridin-6-yl)-1-(difluoromethyl)-1H-pyrazole-3-carboxamide]
0.015 | COc1ncccc1C(=O)Nc1cn2cc(C34COC(C)(C3)C4)nc2c(OC)n1 [Example 447, 2-methoxy-N-(8-methoxy-2-(1-methyl-2-oxabicyclo[2.1.1]hexan-4-yl)imidazo[1,2-a]pyrazin-6-yl)nicotinamide 2,2,2-trifluoroacetate]
0.028 | COc1cc(NC(=O)c2csc(C3CC3)n2)cn2cc(C3CCOCC3)nc12 [Example 244, 2-cyclopropyl-N-(8-methoxy-2-(tetrahydro-2H-pyran-4-yl)imidazo[1,2-a]pyridin-6-yl)thiazole-4-carboxamide]
0.002 | CC(C)Oc1cc2nc(C3CCOCC3)cn2cc1NC(=O)c1cccc(C2CCOC2)n1 (stereo not drawn) [Example 380, N-(7-isopropoxy-2-(tetrahydro-2H-pyran-4-yl)imidazo[1,2-a]pyridin-6-yl)-6-(tetrahydrofuran-3-yl)picolinamide hydrochloride]
0.002 | CC(C)Oc1cc2nc(-c3ccnn3C)cn2cc1NC(=O)c1cccc(C(F)F)n1 [Example 525, 6-(difluoromethyl)-N-(7-isopropoxy-2-(1-methyl-1H-pyrazol-5-yl)imidazo[1,2-a]pyridin-6-yl)picolinamide]
0.013 | CC(C)Oc1c(NC(=O)c2ccnc3ccnn23)cn2cc(C34COC(C)(C3)C4)nc2c1F [Example 433, N-(8-fluoro-7-isopropoxy-2-(1-methyl-2-oxabicyclo[2.1.1]hexan-4-yl)imidazo[1,2-a]pyridin-6-yl)pyrazolo[1,5-a]pyrimidine-7-carboxamide]
0.001 | O=C(Nc1cn2cc(C3CCOCC3)nc2cc1OC(F)F)c1cccc(C(F)F)n1 [Example 394, N-(7-(difluoromethoxy)-2-(tetrahydro-2H-pyran-4-yl)imidazo[1,2-a]pyridin-6-yl)-6-(difluoromethyl)picolinamide]
0.008 | COc1nc2nc(C34COC(C)(C3)C4)cn2cc1NC(=O)c1cccc(C(F)F)n1 [Example 567, 6-(difluoromethyl)-N-(7-methoxy-2-(1-methyl-2-oxabicyclo[2.1.1]hexan-4-yl)imidazo[1,2-a]pyrimidin-6-yl)picolinamide 2,2,2-trifluoroacetate]
0.038 | O=C(Nc1cn2cc(C3CCOCC3)nc2cn1)c1cccc2c1OCC2 [Example 275, N-(2-(tetrahydro-2H-pyran-4-yl)imidazo[1,2-a]pyrazin-6-yl)-2,3-dihydrobenzofuran-7-carboxamide]
0.01 | CCOc1cc(NC(=O)c2cccc(C(F)F)n2)cn2cc(C34COC(C)(C3)C4)nc12 [Example 414, 6-(difluoromethyl)-N-(8-ethoxy-2-(1-methyl-2-oxabicyclo[2.1.1]hexan-4-yl)imidazo[1,2-a]pyridin-6-yl)picolinamide 2,2,2-trifluoroacetate]
0.033 | CCOc1cc(NC(=O)c2cccc(C(F)(F)F)n2)cn2cc(C3CCOCC3)nc12 [Example 415, N-(8-ethoxy-2-(tetrahydro-2H-pyran-4-yl)imidazo[1,2-a]pyridin-6-yl)-6-(trifluoromethyl)picolinamide hydrochloride]
0.014 | COc1nc(NC(=O)c2cccc3c2OCC3(F)F)cn2cc(C3CCOCC3)nc12 [Example 454, 3,3-difluoro-N-(8-methoxy-2-(tetrahydro-2H-pyran-4-yl)imidazo[1,2-a]pyrazin-6-yl)-2,3-dihydrobenzofuran-7-carboxamide]
0.008 | COc1nc(NC(=O)c2cccc3c2OCC3(F)F)cn2cc(C34COC(C)(C3)C4)nc12 [Example 446, 3,3-difluoro-N-(8-methoxy-2-(1-methyl-2-oxabicyclo[2.1.1]hexan-4-yl)imidazo[1,2-a]pyrazin-6-yl)-2,3-dihydrobenzofuran-7-carboxamide]
0.015 | CC(C)Oc1nc(NC(=O)c2cnn3cccc(F)c23)cn2cc(C34COC(C)(C3)C4)nc12 [Example 482, 4-fluoro-N-(8-isopropoxy-2-(1-methyl-2-oxabicyclo[2.1.1]hexan-4-yl)imidazo[1,2-a]pyrazin-6-yl)pyrazolo[1,5-a]pyridine-3-carboxamide]
0.002 | O=C(Nc1cn2cc(C3CCOCC3)nc2cc1OCC1CC12CCOC2)c1cccc(C(F)F)n1 (stereo not drawn) [Example 194, N-(7-((5-oxaspiro[2.4]heptan-1-yl)methoxy)-2-(tetrahydro-2H-pyran-4-yl)imidazo[1,2-a]pyridin-6-yl)-6-(difluoromethyl)picolinamide]

SMILES | IC50 [µM]
CC12CCC(c3cn4cc(NC(=O)c5coc(C6CC6)n5)nc(OC5CCC5)c4n3)(CO1)C2 (stereo not drawn) [Example 341, N-(8-cyclobutoxy-2-(1-methyl-2-oxabicyclo[2.2.1]heptan-4-yl)imidazo[1,2-a]pyrazin-6-yl)-2-cyclopropyloxazole-4-carboxamide] | 0.006
